Assay results taken from patent publication US10287300B2 (Merck Patent GmbH, priority 2012, dated 2019).

Key:
[1] = molecular target: P70S6K (T412E mutant, Millipore) (Homo sapiens (Human), UniProt P23443, T412E); assay: P70S6K enzyme assay; format: biochemical; conditions: 24 μM ATP, 90 min at 25° C.
Protocol: P70S6K inhibitor compounds were diluted and plated in 96 well plates. A reaction mixture including the following components was then added to the compound plate to initiate the enzyme reaction; P70S6K (3 nM, T412E mutant, Millipore) was mixed with 24 μM ATP in an assay buffer containing 100 mM Hepes (pH 7.5), 5 mM MgCl2, 1 mM DTT, 0.015% Brij and 1 μM of the substrate peptide FITC-AHA-AKRRRLSSLRA-OH (derived from the S6 ribosomal protein sequence, FITC=fluorescein isothiocyanate, AHA=6-aminohexanoic acid). The reaction was incubated for 90 min at 25° C., before the addition of 10 mM EDTA to stop the reaction. The proportion of substrate and product (phosphorylated) peptide was analysed on a Caliper Life Sciences Lab Chip 3000, using a pressure of −1.4 psi, and upstream and downstream voltages of −3000 and −700 respectively. Product peaks were resolved before substrate peaks on the resulting chromatograms.

His-AKT (Full Length) = His-AKT (Full Length) (Homo sapiens (Human), UniProt P31749); assay: AKT enzyme assay; format: biochemical; conditions: 160 uM ATP, 90 min at 25° C.
Protocol: A TTP Mosquito liquid handling instrument was used to place 125 nl of the appropriate concentration of inhibitor in 100% DMSO (for a dose response curve calculation) into each well of a 384-well plate. To this reaction components were added to a final volume of 12.5 μl: • 0.1 ng/μl His-AKT (Full Length), (Invitrogen, Part # P2999, Lot #641228C). • 160 uM ATP (Fluka, 02055) • 1 mM DTT (Sigma, D0632) • 1 mM MgCl2 (Sigma, M1028) • 1 μM substrate peptide (sequence FITC-AHA-GRPRTSSFAEG-NH2), • synthesized by Tufts Peptide Synthesis service. • 100 mM HEPES pH 7.5 (Calbiochem, 391338) • 0.015% Brij-35 (Sigma, B4184)
The reaction was incubated for 90 min at 25° C., and then stopped by the addition of 70 μl of Stop buffer (100 mM HEPES pH 7.5, 0.015% Brij-35, 10 mM EDTA (Sigma, E7889)).
The plate was read on a Caliper LC 3000 in an Off-Chip mobility shift assay format, using the following parameters for a 12-sipper chip: screening pressure −2.3 psi, upstream voltage −500, and downstream voltage −3000. These conditions caused unphosphorylated substrate and phosphorylated product peptide to resolve as separate peaks allowing direct measurement of percentage of conversion of substrate to product. The percent conversion was plotted against concentration of inhibitor to produce a sigmoidal dose response curve, from which an IC50 was calculated.

His-AKT (Full Length), sequence (P31749 whole entry): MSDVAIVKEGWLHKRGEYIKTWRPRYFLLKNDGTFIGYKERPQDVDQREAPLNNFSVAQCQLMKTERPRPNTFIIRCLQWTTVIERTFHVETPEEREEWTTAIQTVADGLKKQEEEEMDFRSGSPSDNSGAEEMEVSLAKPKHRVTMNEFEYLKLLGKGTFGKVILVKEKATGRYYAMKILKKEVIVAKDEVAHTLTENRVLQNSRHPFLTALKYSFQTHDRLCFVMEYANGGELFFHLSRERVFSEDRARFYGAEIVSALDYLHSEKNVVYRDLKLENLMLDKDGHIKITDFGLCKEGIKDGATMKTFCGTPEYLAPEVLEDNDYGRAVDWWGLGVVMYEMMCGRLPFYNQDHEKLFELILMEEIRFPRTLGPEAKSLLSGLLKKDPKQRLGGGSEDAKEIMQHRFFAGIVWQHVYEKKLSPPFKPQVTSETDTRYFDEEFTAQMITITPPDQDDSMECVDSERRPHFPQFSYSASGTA
P70S6K (T412E mutant, Millipore), sequence (P23443 whole entry T412E): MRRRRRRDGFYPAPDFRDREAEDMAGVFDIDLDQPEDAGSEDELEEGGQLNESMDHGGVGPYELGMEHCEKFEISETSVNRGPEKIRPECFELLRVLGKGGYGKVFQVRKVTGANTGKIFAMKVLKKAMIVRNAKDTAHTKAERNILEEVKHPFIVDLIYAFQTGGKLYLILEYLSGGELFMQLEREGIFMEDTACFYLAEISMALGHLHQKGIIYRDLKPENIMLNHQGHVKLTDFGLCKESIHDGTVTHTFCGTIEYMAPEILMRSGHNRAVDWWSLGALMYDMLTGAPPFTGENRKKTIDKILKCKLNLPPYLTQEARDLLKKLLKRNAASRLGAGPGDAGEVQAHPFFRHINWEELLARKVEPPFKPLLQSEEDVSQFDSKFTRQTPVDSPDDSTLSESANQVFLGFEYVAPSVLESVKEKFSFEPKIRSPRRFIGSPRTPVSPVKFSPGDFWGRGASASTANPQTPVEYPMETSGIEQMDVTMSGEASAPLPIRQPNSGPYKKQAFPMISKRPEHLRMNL

IC50 [1] | IC50 (His-AKT (Full Length)) | Structure (SMILES)
> 1000 nM | > 1000 nM | O=C1CNc2ncnc(N3CCN(C(CN4CCC4)c4ccccc4Cl)CC3)c2N1 (stereo not drawn) [Compound A42, 4-(4-(2-(azetidin-1-yl)-1-(2-chlorophenyl)ethyl)piperazin-1-yl)-7,8-dihydropteridin-6(5H)-one]
> 1000 nM | > 1000 nM | O=C1CNc2ncnc(N3CCN(C(CN4CCCC4)c4ccccc4Cl)CC3)c2N1 (stereo not drawn) [Compound A43, 4-(4-(1-(2-chlorophenyl)-2-(pyrrolidin-1-yl)ethyl)piperazin-1-yl)-7,8-dihydropteridin-6(5H)-one]
> 1000 nM | > 1000 nM | O=C1CNc2ncnc(N3CCN(C(CN4CCCCC4)c4ccccc4Cl)CC3)c2N1 (stereo not drawn) [Compound A44, 4-(4-(1-(2-chlorophenyl)-2-(piperidin-1-yl)ethyl)piperazin-1-yl)-7,8-dihydropteridin-6(5H)-one]
> 1000 nM | > 1000 nM | Cc1ccccc1C(CN(C)C)N1CCN(c2ncnc3c2NC(=O)CN3)CC1 (stereo not drawn) [Compound A45, 4-(4-(2-(dimethylamino)-1-(o-tolyl)ethyl)piperazin-1-yl)-7,8-dihydropteridin-6(5H)-one]
> 1000 nM | > 1000 nM | Cc1ccccc1C(CN1CCCC1)N1CCN(c2ncnc3c2NC(=O)CN3)CC1 (stereo not drawn) [Compound A46, 4-(4-(2-(pyrrolidin-1-yl)-1-(o-tolyl)ethyl)piperazin-1-yl)-7,8-dihydropteridin-6(5H)-one]
> 1000 nM | > 1000 nM | Cc1ccccc1C(CN1CCCCC1)N1CCN(c2ncnc3c2NC(=O)CN3)CC1 (stereo not drawn) [Compound A47, 4-(4-(2-(piperidin-1-yl)-1-(o-tolyl)ethyl)piperazin-1-yl)-7,8-dihydropteridin-6(5H)-one]
> 1000 nM | > 1000 nM | NCC(c1ccc(F)c(F)c1)N1CCN(c2ncnc3c2NC(=O)CN3)CC1 (stereo not drawn) [Compound A48]
> 1000 nM | > 1000 nM | CN(C)CC(c1ccc(F)c(F)c1)N1CCN(c2ncnc3c2NC(=O)CN3)CC1 (stereo not drawn) [Compound A49, 4-(4-(1-(3,4-difluorophenyl)-2-(dimethylamino)ethyl)piperazin-1-yl)-7,8-dihydropteridin-6(5H)-one]
> 1000 nM | > 1000 nM | CNCC(c1ccc(F)c(F)c1)N1CCN(c2ncnc3c2NC(=O)CN3)CC1 (stereo not drawn) [Compound A50, 4-(4-(1-(3,4-difluorophenyl)-2-(methylamino)ethyl)piperazin-1-yl)-7,8-dihydropteridin-6(5H)-one]
> 1000 nM | > 1000 nM | O=C1CNc2ncnc(N3CCN(C(CN4CCC4)c4ccc(F)c(F)c4)CC3)c2N1 (stereo not drawn) [Compound A51, 4-(4-(2-(azetidin-1-yl)-1-(3,4-difluorophenyl)ethyl)piperazin-1-yl)-7,8-dihydropteridin-6(5H)-one]
> 1000 nM | > 1000 nM | O=C1CNc2ncnc(N3CCN(C(CN4CCCC4)c4ccc(F)c(F)c4)CC3)c2N1 (stereo not drawn) [Compound A52, 4-(4-(1-(3,4-difluorophenyl)-2-(pyrrolidin-1-yl)ethyl)piperazin-1-yl)-7,8-dihydropteridin-6(5H)-one]
> 1000 nM | > 1000 nM | O=C1CNc2ncnc(N3CCN(C(CN4CCCCC4)c4ccc(F)c(F)c4)CC3)c2N1 (stereo not drawn) [Compound A53, 4-(4-(1-(3,4-difluorophenyl)-2-(piperidin-1-yl)ethyl)piperazin-1-yl)-7,8-dihydropteridin-6(5H)-one]
> 1000 nM | > 1000 nM | CN(C)CC(c1ccc(F)c(Cl)c1)N1CCN(c2ncnc3c2NC(=O)CN3)CC1 (stereo not drawn) [Compound A54, 4-(4-(1-(3-chloro-4-fluorophenyl)-2-(dimethylamino)ethyl)piperazin-1-yl)-7,8-dihydropteridin-6(5H)-one]
> 1000 nM | > 1000 nM | O=C1CNc2ncnc(N3CCN(C(CN4CCC4)c4ccc(F)c(Cl)c4)CC3)c2N1 (stereo not drawn) [Compound A55, 4-(4-(2-(azetidin-1-yl)-1-(3-chloro-4-fluorophenyl)ethyl)piperazin-1-yl)-7,8-dihydropteridin-6(5H)-one]
> 1000 nM | > 1000 nM | O=C1CNc2ncnc(N3CCN(C(CN4CCCC4)c4ccc(F)c(Cl)c4)CC3)c2N1 (stereo not drawn) [Compound A56, 4-(4-(1-(3-chloro-4-fluorophenyl)-2-(pyrrolidin-1-yl)ethyl)piperazin-1-yl)-7,8-dihydropteridin-6(5H)-one]
> 1000 nM | > 1000 nM | O=C1CNc2ncnc(N3CCN(C(CN4CCCCC4)c4ccc(F)c(Cl)c4)CC3)c2N1 (stereo not drawn) [Compound A57]
> 1000 nM | 101 to 500 nM | CN(C)CC(c1ccc(Cl)c(F)c1)N1CCN(c2ncnc3c2NC(=O)CN3)CC1 (stereo not drawn) [Compound A58, 4-(4-(1-(4-chloro-3-fluorophenyl)-2-(dimethylamino)ethyl)piperazin-1-yl)-7,8-dihydropteridin-6(5H)-one]
> 1000 nM | > 1000 nM | CNCC(c1ccc(Cl)c(F)c1)N1CCN(c2ncnc3c2NC(=O)CN3)CC1 (stereo not drawn) [Compound A59, 4-(4-(1-(4-chloro-3-fluorophenyl)-2-(methylamino)ethyl)piperazin-1-yl)-7,8-dihydropteridin-6(5H)-one]
> 1000 nM | > 1000 nM | O=C1CNc2ncnc(N3CCN(C(CN4CCC4)c4ccc(Cl)c(F)c4)CC3)c2N1 (stereo not drawn) [Compound A60, 4-(4-(2-(azetidin-1-yl)-1-(4-chloro-3-fluorophenyl)ethyl)piperazin-1-yl)-7,8-dihydropteridin-6(5H)-one]
> 1000 nM | 101 to 500 nM | O=C1CNc2ncnc(N3CCN(C(CN4CCCC4)c4ccc(Cl)c(F)c4)CC3)c2N1 (stereo not drawn) [Compound A61, 4-(4-(1-(4-chloro-3-fluorophenyl)-2-(pyrrolidin-1-yl)ethyl)piperazin-1-yl)-7,8-dihydropteridin-6(5H)-one]
> 1000 nM | 501 to 1000 nM | O=C1CNc2ncnc(N3CCN(C(CN4CCCCC4)c4ccc(Cl)c(F)c4)CC3)c2N1 (stereo not drawn) [Compound A62, 4-(4-(1-(4-chloro-3-fluorophenyl)-2-(piperidin-1-yl)ethyl)piperazin-1-yl)-7,8-dihydropteridin-6(5H)-one]
> 1000 nM | > 1000 nM | CN(C)CCNCC(c1ccc(C(F)(F)F)cc1)N1CCN(c2ncnc3c2NC(=O)CN3)CC1 (stereo not drawn) [Compound A63, 4-(4-(2((2-(dimethylamino)ethyl)amino)-1-(4-(trifluoromethyl)phenyl)-ethyl)piperazin-1-yl)-7,8-dihydropteridin-6(5H)-one]
> 1000 nM | > 1000 nM | CN(C)CCNCC(c1cccc(C(F)(F)F)c1)N1CCN(c2ncnc3c2NC(=O)CN3)CC1 (stereo not drawn) [Compound A64, 4-(4-(2-((2-(dimethylamino)ethyl)amino)-1-(3-(trifluoromethyl)phenyl)-ethyl)piperazin-1-yl)-7,8-dihydropteridin-6(5H)-one]
> 1000 nM | > 1000 nM | Cc1ccc(C(CNCCN(C)C)N2CCN(c3ncnc4c3NC(=O)CN4)CC2)cc1 (stereo not drawn) [Compound A65, 4-(4-(2-((2-(dimethylamino)ethyl)amino)-1-(p-tolyl)ethyl)piperazin-1-yl)-7,8-dihydropteridin-6(5H)-one]
